{"source": "ChEMBL document CHEMBL1201862", "about": "“PubChem BioAssay data set” (2004)", "assay_in_all_cases": "NCI-60 cell line screen, 48 h", "key": {"CCRF-CEM": {"test_system": "CCRF-CEM"}, "OVCAR-4": {"test_system": "OVCAR-4"}, "OVCAR-5": {"test_system": "OVCAR-5"}, "RXF 393": {"test_system": "RXF 393"}, "MDA-MB-231": {"test_system": "MDA-MB-231"}, "OVCAR-3": {"test_system": "OVCAR-3"}, "786-0": {"test_system": "786-0"}, "DU-145": {"test_system": "DU-145"}, "U-251": {"test_system": "U-251"}, "HT-29": {"test_system": "HT-29"}, "TK-10": {"test_system": "TK-10"}, "NCI-H460": {"test_system": "NCI-H460"}, "HCT-116": {"test_system": "HCT-116"}, "HOP-92": {"test_system": "HOP-92"}, "UO-31": {"test_system": "UO-31"}, "K562": {"test_system": "K562"}, "EKVX": {"test_system": "EKVX"}, "Malme-3M": {"test_system": "Malme-3M"}, "NCI/ADR-RES": {"test_system": "NCI/ADR-RES"}, "SNB-75": {"test_system": "SNB-75"}, "HOP-62": {"test_system": "HOP-62"}, "ACHN": {"test_system": "ACHN"}, "BT-549": {"test_system": "BT-549"}, "CAKI-1": {"test_system": "CAKI-1"}, "IGROV-1": {"test_system": "IGROV-1"}, "SK-MEL-2": {"test_system": "SK-MEL-2"}, "SW-620": {"test_system": "SW-620"}, "MDA-N": {"test_system": "MDA-N"}, "SN12C": {"test_system": "SN12C"}, "M14": {"test_system": "M14"}, "OVCAR-8": {"test_system": "OVCAR-8"}, "NCI-H226": {"test_system": "NCI-H226"}, "LOX IMVI": {"test_system": "LOX IMVI"}, "NCI-H522": {"test_system": "NCI-H522"}, "HCT-15": {"test_system": "HCT-15"}, "SNB-19": {"test_system": "SNB-19"}, "SF-295": {"test_system": "SF-295"}, "A549": {"test_system": "A549"}, "A498": {"test_system": "A498"}, "UACC-62": {"test_system": "UACC-62"}, "Hs-578T": {"test_system": "Hs-578T"}, "PC-3": {"test_system": "PC-3"}, "UACC-257": {"test_system": "UACC-257"}, "T47D": {"test_system": "T47D"}, "SK-MEL-28": {"test_system": "SK-MEL-28"}, "SK-MEL-5": {"test_system": "SK-MEL-5"}, "SR": {"test_system": "SR"}, "SF-268": {"test_system": "SF-268"}, "MOLT-4": {"test_system": "MOLT-4"}, "HCC 2998": {"test_system": "HCC 2998"}, "KM12": {"test_system": "KM12"}, "MDA-MB-435": {"test_system": "MDA-MB-435"}, "NCI-H23": {"test_system": "NCI-H23"}}, "note": "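Briefly, cells in 96-well plates were exposed to five compound concentrations for 48 h, and endpoints were estimated by linear interpolation. At the GI50, growth is halved.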 Active and inactive are the calls of the source. No stated cut-off is given here; in the data, active = GI50 up to about 1.1 µM and inactive = higher."}
{"smiles": "Cc1cccc(Cl)c1NCC(O)CN1CCN(C)CC1", "note": "(stereo not drawn)", "values": [{"measurement": "GI50", "setting": "CCRF-CEM", "value": "> 100 µM (inactive)"}, {"measurement": "GI50", "setting": "OVCAR-4", "value": "> 100 µM (inactive)"}, {"measurement": "GI50", "setting": "OVCAR-5", "value": "> 100 µM (inactive)"}, {"measurement": "GI50", "setting": "RXF 393", "value": "> 100 µM (inactive)"}, {"measurement": "GI50", "setting": "MDA-MB-231", "value": "> 100 µM (inactive)"}, {"measurement": "GI50", "setting": "OVCAR-3", "value": "> 100 µM (inactive)"}, {"measurement": "GI50", "setting": "786-0", "value": "> 100 µM (inactive)"}, {"measurement": "GI50", "setting": "DU-145", "value": "> 100 µM (inactive)"}, {"measurement": "GI50", "setting": "U-251", "value": "> 100 µM (inactive)"}, {"measurement": "GI50", "setting": "HT-29", "value": "> 100 µM (inactive)"}, {"measurement": "GI50", "setting": "TK-10", "value": "> 100 µM (inactive)"}, {"measurement": "GI50", "setting": "NCI-H460", "value": "> 100 µM (inactive)"}, {"measurement": "GI50", "setting": "HCT-116", "value": "> 100 µM (inactive)"}, {"measurement": "GI50", "setting": "HOP-92", "value": "> 100 µM (inactive)"}, {"measurement": "GI50", "setting": "UO-31", "value": "> 100 µM (inactive)"}, {"measurement": "GI50", "setting": "K562", "value": "> 100 µM (inactive)"}, {"measurement": "GI50", "setting": "EKVX", "value": "> 100 µM (inactive)"}, {"measurement": "GI50", "setting": "Malme-3M", "value": "> 100 µM (inactive)"}, {"measurement": "GI50", "setting": "NCI/ADR-RES", "value": "> 100 µM (inactive)"}, {"measurement": "GI50", "setting": "SNB-75", "value": "> 100 µM (inactive)"}, {"measurement": "GI50", "setting": "HOP-62", "value": "> 100 µM (inactive)"}, {"measurement": "GI50", "setting": "ACHN", "value": "> 100 µM (inactive)"}, {"measurement": "GI50", "setting": "BT-549", "value": "> 100 µM (inactive)"}, {"measurement": "GI50", "setting": "CAKI-1", "value": "> 100 µM (inactive)"}, {"measurement": "GI50", "setting": "IGROV-1", "value": "> 100 µM (inactive)"}, {"measurement": "GI50", "setting": "SK-MEL-2", "value": "> 100 µM (inactive)"}, {"measurement": "GI50", "setting": "SW-620", "value": "> 100 µM (inactive)"}, {"measurement": "GI50", "setting": "MDA-N", "value": "> 100 µM (inactive)"}, {"measurement": "GI50", "setting": "SN12C", "value": "> 100 µM (inactive)"}, {"measurement": "GI50", "setting": "M14", "value": "> 100 µM (inactive)"}, {"measurement": "GI50", "setting": "OVCAR-8", "value": "> 100 µM (inactive)"}, {"measurement": "GI50", "setting": "NCI-H226", "value": "> 100 µM (inactive)"}, {"measurement": "GI50", "setting": "LOX IMVI", "value": "> 100 µM (inactive)"}, {"measurement": "GI50", "setting": "NCI-H522", "value": "> 100 µM (inactive)"}, {"measurement": "GI50", "setting": "HCT-15", "value": "> 100", "unit": "µM"}, {"measurement": "GI50", "setting": "SNB-19", "value": "> 100 µM (inactive)"}, {"measurement": "GI50", "setting": "SF-295", "value": "> 100 µM (inactive)"}, {"measurement": "GI50", "setting": "A549", "value": "> 100 µM (inactive)"}, {"measurement": "GI50", "setting": "A498", "value": "> 100 µM (inactive)"}, {"measurement": "GI50", "setting": "UACC-62", "value": "> 100 µM (inactive)"}, {"measurement": "GI50", "setting": "Hs-578T", "value": "> 100 µM (inactive)"}, {"measurement": "GI50", "setting": "PC-3", "value": "> 100 µM (inactive)"}, {"measurement": "GI50", "setting": "UACC-257", "value": "> 100 µM (inactive)"}, {"measurement": "GI50", "setting": "T47D", "value": "> 100 µM (inactive)"}, {"measurement": "GI50", "setting": "SK-MEL-28", "value": "> 100 µM (inactive)"}, {"measurement": "GI50", "setting": "SK-MEL-5", "value": "> 100 µM (inactive)"}, {"measurement": "GI50", "setting": "SR", "value": "> 100 µM (inactive)"}, {"measurement": "GI50", "setting": "SF-268", "value": "> 100 µM (inactive)"}, {"measurement": "GI50", "setting": "MOLT-4", "value": "> 100 µM (inactive)"}, {"measurement": "GI50", "setting": "HCC 2998", "value": "> 100 µM (inactive)"}, {"measurement": "GI50", "setting": "KM12", "value": "> 100 µM (inactive)"}, {"measurement": "GI50", "setting": "MDA-MB-435", "value": "> 100 µM (inactive)"}, {"measurement": "GI50", "setting": "NCI-H23", "value": "> 100 µM (inactive)"}]}
